How the values were obtained:
Type in all cases: cell-based
[1] = molecular target: T1, LAT1 (System L1 catalytic subunit) (Mus musculus, UniProt Q9Z127); assay: saturable [3H]phenylalanine uptake (Km) in 3T3-L1 cells
T1 construct: gene Slc7a5; endogenous System L1 in 3T3-L1 adipocytes; with SLC3A2 (4F2hc/CD98)

[2] = molecular target: T1, LAT1 (System L1 catalytic subunit); assay: inhibition of […] [3H]phenylalanine uptake at […]; settings: read-out: % inhibition at 10 mM
[3] = molecular target: T1, LAT1 (System L1 catalytic subunit); assay: inhibition of [3H]phenylalanine uptake ([…] at […]) and of leucine trans stimulated efflux; settings: read-out: % inhibition at 10 μM
[4] = molecular target: T1, LAT1 (System L1 catalytic subunit); assay: trans stimulation of [3H]phenylalanine efflux; inhibition of phenylalanine and T3 uptake

T1 sequence (Q9Z127 whole entry): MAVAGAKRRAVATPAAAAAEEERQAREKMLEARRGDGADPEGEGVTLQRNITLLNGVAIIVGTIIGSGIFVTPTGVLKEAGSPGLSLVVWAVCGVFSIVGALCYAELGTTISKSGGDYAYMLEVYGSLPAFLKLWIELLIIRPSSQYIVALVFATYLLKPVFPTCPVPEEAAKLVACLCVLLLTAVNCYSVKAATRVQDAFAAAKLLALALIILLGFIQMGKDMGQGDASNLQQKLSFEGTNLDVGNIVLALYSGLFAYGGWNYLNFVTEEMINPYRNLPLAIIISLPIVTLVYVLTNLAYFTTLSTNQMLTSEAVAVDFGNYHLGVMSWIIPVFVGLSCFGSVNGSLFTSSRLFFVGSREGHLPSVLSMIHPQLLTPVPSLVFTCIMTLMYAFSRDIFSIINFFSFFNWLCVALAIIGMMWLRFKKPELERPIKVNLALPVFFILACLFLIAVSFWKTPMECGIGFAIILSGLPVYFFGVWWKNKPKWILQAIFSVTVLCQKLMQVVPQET
T1 sequence (P10852 whole entry partner): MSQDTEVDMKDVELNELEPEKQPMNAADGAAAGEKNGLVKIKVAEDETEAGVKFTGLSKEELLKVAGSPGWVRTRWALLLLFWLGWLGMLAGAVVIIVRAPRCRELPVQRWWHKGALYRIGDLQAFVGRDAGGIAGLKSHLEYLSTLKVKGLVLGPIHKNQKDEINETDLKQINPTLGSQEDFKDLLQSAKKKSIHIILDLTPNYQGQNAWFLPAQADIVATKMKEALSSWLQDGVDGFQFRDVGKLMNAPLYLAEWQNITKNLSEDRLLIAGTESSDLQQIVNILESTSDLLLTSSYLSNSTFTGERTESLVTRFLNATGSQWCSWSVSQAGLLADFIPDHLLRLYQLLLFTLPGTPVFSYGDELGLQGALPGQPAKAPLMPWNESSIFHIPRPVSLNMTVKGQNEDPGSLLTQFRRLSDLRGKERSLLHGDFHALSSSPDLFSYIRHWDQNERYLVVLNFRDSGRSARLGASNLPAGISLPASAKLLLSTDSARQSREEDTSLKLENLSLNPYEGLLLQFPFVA

N[C@@H](Cc1ccccc1)C(=O)O [L-phenylalanine]
Km [1]: 31 µM

NC1(C(=O)O)CC2CCC1C2 (stereo not shown) [BCH, 2-aminobicyclo-(2,2,1)-heptane-2-carboxylic acid]
inhibition at 10000 µM [2]: > 95%

N[C@@H](Cc1ccc(Oc2cc(I)c(O)c(I)c2)c(I)c1)C(=O)O [rT3, Reverse L-triiodothyronine]
inhibition at 10 µM [3]: 57%

CC(C)C[C@H](N)C(=O)O [leucine]
trans stimulation of [3H]phenylalanine efflux; inhibition of phenylalanine and T [4]: Efflux of pre-loaded L-[^3H]phenylalanine from 3T3-L1 adipocytes was trans stimulated in a concentration-dependent manner by external leucine
